Data reported in US20070128217A1 (priority 2003, published 2007).

How the values were obtained:
[1] = test system: rabbit serum obtained by immunizing a rabbit with the SARS-CoV strain Frankfurt 1; assay type: binding; set-up: Binding of a rabbit serum to linear peptides / Binding of a rabbit serum to looped peptides / Rabbit serum linear peptides / Rabbit serum looped peptides / Binding of a rabbit serum to linear peptides of protein N of SARS-CoV Urbani (Rabbit serum linear peptides) / Binding of a rabbit serum to looped/cyclic peptides of protein N of SARS-CoV Urbani (Rabbit serum looped peptides): unit not given here
[2] = test system: antibodies in sera from SARS patients (sera 1a, 1b, 2, 6, 37, 62, London, SARS-yellow, SARS-green); assay type: binding, human; set-up: Binding of serum 6 to linear peptides of protein X1 of SARS-CoV Urbani / Binding of serum 37 to linear peptides of protein X1 of SARS-CoV Urbani / Binding of serum 6 to looped/cyclic peptide (PEPSCAN-ELISA) / Binding of serum 37 to looped/cyclic peptide (PEPSCAN-ELISA) / Binding of serum 37 to looped/cyclic peptides of protein X1 of SARS-CoV Urbani / Binding of serum 6 to linear peptides of protein X2 / Binding of serum 37 to linear peptides of protein X2 / Binding of serum 37 to looped/cyclic peptides of protein X2 of SARS-CoV Urbani / Binding of serum 6 to linear peptides of protein M of SARS-CoV Urbani / Binding of serum 37 to linear peptides of protein M of SARS-CoV Urbani / Binding of serum 6 to looped/cyclic peptides of protein M of SARS-CoV Urbani / Binding of serum 37 to looped/cyclic peptides of protein M of SARS-CoV Urbani / Binding of serum 6 to linear peptides of protein X3 of SARS-CoV Urbani / Binding of serum 37 to linear peptides of protein X3 of SARS-CoV Urbani / Binding of serum 37 to looped/cyclic peptides of protein X3 of SARS-CoV Urbani / Binding of serum 6 to linear peptides of protein X4 of SARS-CoV Urbani / Binding of serum 37 to linear peptides of protein X4 of SARS-CoV Urbani / Binding of serum 37 to looped/cyclic peptides of protein X4 of SARS-CoV Urbani / Binding of serum 6 to linear peptides of protein X5 of SARS-CoV Urbani / Binding of serum 37 to linear peptides of protein X5 of SARS-CoV Urbani / Binding of serum 37 to looped/cyclic peptides of protein X5 of SARS-CoV Urbani / Binding of serum 6 to linear peptides of protein N of SARS-CoV Urbani / Binding of serum 37 to linear peptides of protein N of SARS-CoV Urbani / Binding of serum 6 to linear peptide (PEPSCAN-ELISA) / Binding of serum 1a to looped/cyclic peptides of protein N of SARS-CoV Urbani / Binding of serum 1b to looped/cyclic peptides of protein N of SARS-CoV Urbani / Binding of serum 2 to looped/cyclic peptides of protein N of SARS-CoV Urbani / Binding of serum 6 to looped/cyclic peptides of protein N of SARS-CoV Urbani / Binding of serum 37 to looped/cyclic peptides of protein N of SARS-CoV Urbani / Binding of serum 62 to looped/cyclic peptides of protein N of SARS-CoV Urbani / Binding of serum London to looped/cyclic peptides of protein N of SARS-CoV Urbani / Binding of serum SARS-green to looped/cyclic peptides of protein N of SARS-CoV Urbani: unit not given here
[3] = test system: control sera (pooled serum of ten healthy LUMC hospital workers; commercial negative donor pooled serum from the Dutch bloodbank); assay type: binding, human; set-up: Binding of Control serum LUMC to linear peptides / Binding of Control serum Blood-bank to linear peptides / Binding of Control serum LUMC to looped peptides / Binding of Control Serum Blood-Bank to Looped peptides / Binding of Control serum LUMC to linear peptides of the protein M of SARS-CoV Urbani / Binding of Control serum Blood-bank to linear peptides of the protein M of SARS-CoV Urbani / Binding of Control serum LUMC to looped peptides of the protein M of SARS-CoV Urbani / Binding of Control Serum Blood-Bank to Looped peptides of the protein M of SARS-CoV Urbani: unit not given here

TEVYYQLESTQITTD
0.4: Binding of a rabbit serum to looped peptides [1] | Binding of serum 62 to looped/cyclic peptides of protein X1 of SARS-CoV Urbani [2] | Binding of serum London to linear peptides of protein X1 of SARS-CoV Urbani [2] | Binding of Control Serum Blood-Bank to Looped peptides [3] | Binding of Control serum LUMC to looped peptides [3]
0.2: Binding of serum 2 to looped/cyclic peptides of protein X1 of SARS-CoV Urbani [2] | Binding of serum London to looped/cyclic peptides of protein X1 of SARS-CoV Urbani [2]
0.6: Binding of serum 62 to linear peptides of protein X1 of SARS-CoV Urbani [2] | Binding of serum SARS-yellow to linear peptides of protein X1 of SARS-CoV Urbani [2]
0.1: Binding of a rabbit serum to linear peptides [1]
0.8: Binding of serum 1a to linear peptides of protein X1 of SARS-CoV Urbani [2] | Binding of serum 1b to linear peptides of protein X1 of SARS-CoV Urbani [2]
0.3: Binding of serum 6 to looped/cyclic peptides of protein X1 of SARS-CoV Urbani [2] | Binding of serum SARS-green to looped/cyclic peptides of protein X1 of SARS-CoV Urbani [2] | Binding of serum SARS-yellow to looped/cyclic peptides of protein X1 of SARS-CoV Urbani [2]
0.9: Binding of serum 37 to linear peptides of protein X1 of SARS-CoV Urbani [2]
0.5: Binding of serum 1a to looped/cyclic peptides of protein X1 of SARS-CoV Urbani [2] | Binding of serum 1b to looped/cyclic peptides of protein X1 of SARS-CoV Urbani [2] | Binding of serum 2 to linear peptides of protein X1 of SARS-CoV Urbani [2] | Binding of serum 6 to linear peptides of protein X1 of SARS-CoV Urbani [2] | Binding of serum 37 to looped/cyclic peptides of protein X1 of SARS-CoV Urbani [2] | Binding of serum SARS-green to linear peptides of protein X1 of SARS-CoV Urbani [2] | Binding of Control serum Blood-bank to linear peptides [3] | Binding of Control serum LUMC to linear peptides [3]

TGIENATFFIFNKLV
0.4: Binding of serum SARS-green to linear peptides of protein X1 of SARS-CoV Urbani [2] | Binding of serum SARS-yellow to looped/cyclic peptides of protein X1 of SARS-CoV Urbani [2]
0.3: Binding of serum London to linear peptides of protein X1 of SARS-CoV Urbani [2] | Binding of serum London to looped/cyclic peptides of protein X1 of SARS-CoV Urbani [2]
0.1: Binding of a rabbit serum to linear peptides [1]
0.2: Binding of serum SARS-green to looped/cyclic peptides of protein X1 of SARS-CoV Urbani [2]
0.6: Binding of a rabbit serum to looped peptides [1] | Binding of serum 1a to looped/cyclic peptides of protein X1 of SARS-CoV Urbani [2] | Binding of serum 2 to linear peptides of protein X1 of SARS-CoV Urbani [2] | Binding of serum 2 to looped/cyclic peptides of protein X1 of SARS-CoV Urbani [2] | Binding of serum SARS-yellow to linear peptides of protein X1 of SARS-CoV Urbani [2]
0.7: Binding of serum 1a to linear peptides of protein X1 of SARS-CoV Urbani [2] | Binding of serum 37 to linear peptides of protein X1 of SARS-CoV Urbani [2] | Binding of serum 37 to looped/cyclic peptides of protein X1 of SARS-CoV Urbani [2] | Binding of serum 62 to linear peptides of protein X1 of SARS-CoV Urbani [2] | Binding of serum 62 to looped/cyclic peptides of protein X1 of SARS-CoV Urbani [2] | Binding of Control serum LUMC to linear peptides [3] | Binding of Control serum LUMC to looped peptides [3]
0.8: Binding of Control Serum Blood-Bank to Looped peptides [3] | Binding of Control serum Blood-bank to linear peptides [3]
0.5: Binding of serum 1b to linear peptides of protein X1 of SARS-CoV Urbani [2] | Binding of serum 1b to looped/cyclic peptides of protein X1 of SARS-CoV Urbani [2] | Binding of serum 6 to linear peptides of protein X1 of SARS-CoV Urbani [2] | Binding of serum 6 to looped/cyclic peptides of protein X1 of SARS-CoV Urbani [2]

THRMCKYTQSTALQE
0.8: Binding of serum 1b to linear peptides of protein X2 [2] | Binding of serum 62 to linear peptides of protein X2 [2] | Binding of serum SARS-yellow to linear peptides of protein X2 [2]
0.5: Binding of serum 1a to looped/cyclic peptides of protein X2 of SARS-CoV Urbani [2] | Binding of serum 2 to linear peptides of protein X2 [2] | Binding of serum SARS-green to looped/cyclic peptides of protein X2 of SARS-CoV Urbani [2] | Binding of Control Serum Blood-Bank to Looped peptides [3]
0.9: Binding of serum 1a to linear peptides of protein X2 [2] | Binding of Control serum Blood-bank to linear peptides [3]
0.7: Binding of serum 37 to linear peptides of protein X2 [2] | Binding of serum London to linear peptides of protein X2 [2] | Binding of Control serum LUMC to linear peptides [3]
0.6: Binding of serum 1b to looped/cyclic peptides of protein X2 of SARS-CoV Urbani [2] | Binding of serum 6 to linear peptides of protein X2 [2] | Binding of serum SARS-green to linear peptides of protein X2 [2]
0.4: Binding of serum 62 to looped/cyclic peptides of protein X2 of SARS-CoV Urbani [2] | Binding of Control serum LUMC to looped peptides [3]
0.3: Binding of a rabbit serum to linear peptides [1] | Binding of a rabbit serum to looped peptides [1] | Binding of serum 37 to looped/cyclic peptides of protein X2 of SARS-CoV Urbani [2] | Binding of serum SARS-yellow to looped/cyclic peptides of protein X2 of SARS-CoV Urbani [2]
0.2: Binding of serum 2 to looped/cyclic peptides of protein X2 of SARS-CoV Urbani [2] | Binding of serum 6 to looped/cyclic peptides of protein X2 of SARS-CoV Urbani [2] | Binding of serum London to looped/cyclic peptides of protein X2 of SARS-CoV Urbani [2]

TIAEILIIIMRTFRI
0.5: Binding of serum SARS-yellow to looped/cyclic peptides of protein X3 of SARS-CoV Urbani [2]
0.6: Binding of serum 2 to looped/cyclic peptides of protein X3 of SARS-CoV Urbani [2] | Binding of serum 37 to linear peptides of protein X3 of SARS-CoV Urbani [2] | Binding of Control serum LUMC to linear peptides of the protein X3 of SARS-CoV Urbani [3]
0.4: Binding of serum 1b to looped/cyclic peptides of protein X3 of SARS-CoV Urbani [2] | Binding of serum 6 to looped/cyclic peptides of protein X3 of SARS-CoV Urbani [2] | Binding of serum 62 to looped/cyclic peptides of protein X3 of SARS-CoV Urbani [2] | Binding of serum SARS-green to looped/cyclic peptides of protein X3 of SARS-CoV Urbani [2]
0.8: Binding of serum 1a to linear peptides of protein X3 of SARS-CoV Urbani [2] | Binding of Control serum Blood-bank to linear peptides of the protein X3 of SARS-CoV Urbani [3]
0.7: Binding of serum 1a to looped/cyclic peptides of protein X3 of SARS-CoV Urbani [2] | Binding of serum 2 to linear peptides of protein X3 of SARS-CoV Urbani [2] | Binding of serum 6 to linear peptides of protein X3 of SARS-CoV Urbani [2] | Binding of serum 62 to linear peptides of protein X3 of SARS-CoV Urbani [2] | Binding of serum London to linear peptides of protein X3 of SARS-CoV Urbani [2] | Binding of Control serum LUMC to looped peptides of the protein X3 of SARS-CoV Urbani [3]
1.1: Binding of Control Serum Blood-Bank to Looped peptides of the protein X3 of SARS-CoV Urbani [3]
0.3: Binding of serum 1b to linear peptides of protein X3 of SARS-CoV Urbani [2] | Binding of serum 37 to looped/cyclic peptides of protein X3 of SARS-CoV Urbani [2] | Binding of serum SARS-green to linear peptides of protein X3 of SARS-CoV Urbani [2] | Binding of serum SARS-yellow to linear peptides of protein X3 of SARS-CoV Urbani [2]
0.0: Rabbit serum looped peptides [1]
0.2: Rabbit serum linear peptides [1] | Binding of serum London to looped/cyclic peptides of protein X3 of SARS-CoV Urbani [2]

TIDGSSGVANPAMDP
0.4: Binding of a rabbit serum to looped peptides [1] | Binding of serum 1b to looped/cyclic peptides of protein X1 of SARS-CoV Urbani [2] | Binding of serum 2 to looped/cyclic peptides of protein X1 of SARS-CoV Urbani [2] | Binding of serum London to linear peptides of protein X1 of SARS-CoV Urbani [2] | Binding of serum SARS-green to linear peptides of protein X1 of SARS-CoV Urbani [2] | Binding of Control Serum Blood-Bank to Looped peptides [3] | Binding of Control serum Blood-bank to linear peptides [3] | Binding of Control serum LUMC to looped peptides [3]
0.5: Binding of serum 1a to looped/cyclic peptides of protein X1 of SARS-CoV Urbani [2]
0.3: Binding of serum 6 to looped/cyclic peptides of protein X1 of SARS-CoV Urbani [2] | Binding of serum 37 to looped/cyclic peptides of protein X1 of SARS-CoV Urbani [2] | Binding of serum 62 to looped/cyclic peptides of protein X1 of SARS-CoV Urbani [2] | Binding of serum SARS-green to looped/cyclic peptides of protein X1 of SARS-CoV Urbani [2] | Binding of serum SARS-yellow to linear peptides of protein X1 of SARS-CoV Urbani [2]
0.2: Binding of serum London to looped/cyclic peptides of protein X1 of SARS-CoV Urbani [2] | Binding of serum SARS-yellow to looped/cyclic peptides of protein X1 of SARS-CoV Urbani [2]
0.1: Binding of a rabbit serum to linear peptides [1]
0.6: Binding of serum 1a to linear peptides of protein X1 of SARS-CoV Urbani [2] | Binding of serum 1b to linear peptides of protein X1 of SARS-CoV Urbani [2] | Binding of serum 2 to linear peptides of protein X1 of SARS-CoV Urbani [2] | Binding of serum 6 to linear peptides of protein X1 of SARS-CoV Urbani [2] | Binding of serum 37 to linear peptides of protein X1 of SARS-CoV Urbani [2] | Binding of serum 62 to linear peptides of protein X1 of SARS-CoV Urbani [2] | Binding of Control serum LUMC to linear peptides [3]
